This passage reports mortality results from patent publication US12514251B2, “Fused heterocyclic compounds and their use as pest control agents” (priority 2020, dated 2026).

Each structure is given as a SMILES string.

For the assay, the system named is Plutella xylostella. In words: Plutella xylostella, leaf dip method. It is filed as in vivo. The conditions noted are these: foliar, cabbage leaf dip, second instar larvae, 72 h after release, dead + moribund vs untreated control, read-out: percent mortality. Here is the method:
The leaf dip method was used for testing, wherein the required quantity of the compound was weighed and dissolved in a tube containing solvent solution. The tube was put on a vortex at 2000 rpm for 90 min for proper mixing, then diluted with 0.01% Triton-X solution to get the desired test concentration. Cabbage leaves were dipped in the compound solution for 10 seconds, shade dried for 20 min and then transferred into the cells of bioassay trays. A single second instar larva was released into each cell and the tray was covered with a lid. The bio-assay trays were then kept under laboratory conditions at a temperature of 25° C. and a relative humidity of 70%. Observations on dead, moribund and alive larvae were recorded 72 h after the release. Percent mortality was calculated by combining dead and moribund larvae and comparing the result to the one of the untreated control.
As for `CCS(=O)(=O)c1ccc(-n2nc3ccc(C(F)(F)F)cn3c2=O)nc1-c1ccn2nc(C(F)(F)F)cc2n1` [Compound 27, 2-(5-(ethylsulfonyl)-6-(2-(trifluoromethyl)pyrazolo[1,5-a]pyrimidin-5-yl)pyridin-2-yl)-6-(trifluoromethyl)-[1,2,4]triazolo[4,3-a]pyridin-3(2H)-one], the mortality at 300 ppm was no less than 70%. Under `CCS(=O)(=O)c1cc(-c2cc(Cl)cc(Cl)c2)cnc1-c1ncc2nc(C(F)(F)F)n(C)c2n1` [Compound 128, 2-(5-(3,5-dichlorophenyl)-3-(ethylsulfonyl)pyridin-2-yl)-9-methyl-8-(trifluoromethyl)-9H-purine] stands no less than 70%. Turning to `CCS(=O)(=O)c1cc(-c2cc(C(F)(F)F)nn2C)cnc1-c1ccn2nc(C(F)(F)F)cc2n1` [Compound 78, 5-(3-(ethylsulfonyl)-5-(1-methyl-3-(trifluoromethyl)-1H-pyrazol-5-yl)pyridin-2-yl)-2-(trifluoromethyl)pyrazolo[1,5-a]pyrimidine], the mortality at 300 ppm is no less than 70%. As for `CCS(=O)(=O)c1ccc(N2CCn3c(nnc3C(F)(F)F)C2)nc1-c1ccn2nc(C(F)(F)F)cc2n1` [Compound 6, 7-(5-(ethylsulfonyl)-6-(2-(trifluoromethyl)pyrazolo[1,5-a]pyrimidin-5-yl)pyridin-2-yl)-3-(trifluoromethyl)-5,6,7,8-tetrahydro-[1,2,4]triazolo[4,3-a]pyrazine], the mortality at 300 ppm was no less than 70%. `CCS(=O)(=O)c1ccc(C2CC2)nc1-c1ccn2nc(C(F)(F)F)cc2n1` [Compound 171, 5-(6-cyclopropyl-3-(ethylsulfonyl)pyridin-2-yl)-2-(trifluoromethyl)pyrazolo[1,5-a]pyrimidine]: the mortality at 300 ppm is no less than 70%. For `CCS(=O)(=O)c1cc(-c2cnn(C)c2)cnc1-c1ccn2nc(C(F)(F)F)cc2n1` [Compound 97, 5-(3-(ethylsulfonyl)-5-(1-methyl-1H-pyrazol-4-yl)pyridin-2-yl)-2-(trifluoromethyl)pyrazolo[1,5-a]pyrimidine], the mortality at 300 ppm was no less than 70%.

On to `CCS(=O)(=O)c1cc(-n2cnc(C)n2)cnc1-c1ccn2nc(C(F)(F)F)cc2n1` [Compound 69, 5-(3-(ethylsulfonyl)-5-(3-methyl-1H-1,2,4-triazol-1-yl)pyridin-2-yl)-2-(trifluoromethyl)pyrazolo[1,5-a]pyrimidine], for which the mortality at 300 ppm is no less than 70%. In the case of `CCS(=O)(=O)c1cc(-c2cccc(OC(F)(F)C(F)F)c2)cnc1-c1ccn2nc(C(F)(F)F)nc2n1` [Compound 144, 5-(3-(ethylsulfonyl)-5-(3-(1,1,2,2-tetrafluoroethoxy)phenyl)pyridin-2-yl)-2-(trifluoromethyl)-[1,2,4]triazolo[1,5-a]pyrimidine], the mortality at 300 ppm was no less than 70%. On to `CCS(=O)(=O)c1cc(N(C)C)cnc1-c1ccn2nc(C(F)(F)F)cc2n1` [Compound 230, 5-(ethylsulfonyl)-N,N-dimethyl-6-(2-(trifluoromethyl)pyrazolo[1,5-a]pyrimidin-5-yl)pyridin-3-amine], for which the mortality at 300 ppm is no less than 70%. Consider `CCS(=O)(=O)c1cc(NC2CC2)cnc1-c1ccn2nc(C(F)(F)F)cc2n1` [Compound 170, N-cyclopropyl-5-(ethylsulfonyl)-6-(2-(trifluoromethyl)pyrazolo[1,5-a]pyrimidin-5-yl)pyridin-3-amine], for which the mortality at 300 ppm was no less than 70%. Regarding `CCS(=O)(=O)c1ccc(C=C(C)C)nc1-c1ccn2nc(C(F)(F)F)cc2n1` [Compound 210, 5-(3-(ethylsulfonyl)-6-(2-methylprop-1-en-1-yl)pyridin-2-yl)-2-(trifluoromethyl)pyrazolo[1,5-a]pyrimidine], the mortality at 300 ppm was no less than 70%. Regarding `CC#Cc1cnc(-c2ccn3nc(C(F)(F)F)cc3n2)c(S(=O)(=O)CC)c1` [Compound 178, 5-(3-(ethylsulfonyl)-5-(prop-1-yn-1-yl)pyridin-2-yl)-2-(trifluoromethyl)pyrazolo[1,5-a]pyrimidine], the mortality at 300 ppm was no less than 70%. Under `CCS(=O)(=O)c1cc(C)cnc1-c1ccn2nc(C(F)(F)F)cc2n1` [Compound 164, 5-(3-(ethylsulfonyl)-5-methylpyridin-2-yl)-2-(trifluoromethyl)pyrazolo[1,5-a]pyrimidine] stands no less than 70%; under `CCS(=O)(=O)c1ccc(-c2ccc(F)cc2)nc1-c1ccn2nc(C(F)(F)F)cc2n1` [Compound 16, 5-(3-(ethylsulfonyl)-6-(4-fluorophenyl)pyridin-2-yl)-2-(trifluoromethyl)pyrazolo[1,5-a]pyrimidine], no less than 70%; under `CCOc1ccc(S(=O)(=O)CC)c(-c2ccn3nc(C(F)(F)F)cc3n2)n1` [Compound 227, 5-(6-ethoxy-3-(ethylsulfonyl)pyridin-2-yl)-2-(trifluoromethyl)pyrazolo[1,5-a]pyrimidine], no less than 70%. The value for `CCS(=O)(=O)c1cc(-c2ccc(F)cc2)cnc1-c1ccn2nc(C(F)(F)F)nc2n1` [Compound 105, 5-(3-(ethylsulfonyl)-5-(4-fluorophenyl)pyridin-2-yl)-2-(trifluoromethyl)-[1,2,4]triazolo[1,5-a]pyrimidine] was no less than 70%. For `CCS(=O)(=O)c1cc(-c2cc(F)cc(F)c2)cnc1-c1ccn2nc(C(F)(F)F)nc2n1` [Compound 103, 5-(5-(3,5-difluorophenyl)-3-(ethylsulfonyl)pyridin-2-yl)-2-(trifluoromethyl)-[1,2,4]triazolo[1,5-a]pyrimidine], the mortality at 300 ppm was no less than 70%. Under `CCS(=O)(=O)c1cc(NC(=O)C2CC2)cnc1-c1ccn2nc(C(F)(F)F)cc2n1` [Compound 233, N-(5-(ethylsulfonyl)-6-(2-(trifluoromethyl)pyrazolo[1,5-a]pyrimidin-5-yl)pyridin-3-yl)cyclopropanecarboxamide] stands no less than 70%; under `CCS(=O)(=O)c1cc(-n2cc(Br)cn2)cnc1-c1ccn2nc(C(F)(F)F)cc2n1` [Compound 88, 5-(5-(4-bromo-1H-pyrazol-1-yl)-3-(ethylsulfonyl)pyridin-2-yl)-2-(trifluoromethyl)pyrazolo[1,5-a]pyrimidine], no less than 70%; under `CCS(=O)(=O)c1ccc(N(C)C2CC2)nc1-c1ccn2nc(C(F)(F)F)nc2n1` [Compound 176, N-cyclopropyl-5-(ethylsulfonyl)-N-methyl-6-(2-(trifluoromethyl)-[1,2,4]triazolo[1,5-a]pyrimidin-5-yl)pyridin-2-amine], no less than 70%. Regarding `CCS(=O)(=O)c1ccc(-c2ccc(Cl)cc2)nc1-c1ccn2nc(C(F)(F)F)cc2n1` [Compound 20, 5-(6-(4-chlorophenyl)-3-(ethylsulfonyl)pyridin-2-yl)-2-(trifluoromethyl)pyrazolo[1,5-a]pyrimidine], the mortality at 300 ppm is no less than 70%. On to `CCS(=O)(=O)c1ccc(-c2cccc(C#N)c2)nc1-c1ccn2nc(C(F)(F)F)cc2n1` [Compound 23, 3-(5-(ethylsulfonyl)-6-(2-(trifluoromethyl)pyrazolo[1,5-a]pyrimidin-5-yl)pyridin-2-yl)benzonitrile], for which the mortality at 300 ppm was no less than 70%. Consider `CCS(=O)(=O)c1ccc(-n2ccc(F)n2)nc1-c1ccn2nc(C(F)(F)F)cc2n1` [Compound 140, 5-(3-(ethylsulfonyl)-6-(3-fluoro-1H-pyrazol-1-yl)pyridin-2-yl)-2-(trifluoromethyl)pyrazolo[1,5-a]pyrimidine], for which the mortality at 300 ppm was no less than 70%.

What is called mortality is the share of the test organisms that died.
